Patent publication US10765747B2 (SWEDISH ORPHAN BIOVITRUM AB (PUBL), priority 2004, dated 2020)
Read-outs that look alike come from different tables or passages of the source. Values belong to the molecule of their own block, whether it stands above or below them.

What was measured:
IL-1ra [1] = target: T1, IL-1ra (Homo sapiens, UniProt P18510); conditions: for reduction in the rate of aggregation of IL-1ra: 10 mM accessory molecule
Method: The rate of aggregation was determined as the slope of the linear region of the saturation curve calculated using the SoftMax Pro program (Molecular Devices).

IL-1ra [2] = target: T1, IL-1ra; assay: Citrate binding to IL-1ra (spin column filtration, HPLC, Scatchard plot)
[3] = target: T2, anion binding site on IL-1ra (Homo sapiens, UniProt P18510); assay: biochemical; conditions: K^dL, Kd of citrate (y-intercept of K^dLapp plot)
T2 sequence (P18510 with tags, fused parts or gaps): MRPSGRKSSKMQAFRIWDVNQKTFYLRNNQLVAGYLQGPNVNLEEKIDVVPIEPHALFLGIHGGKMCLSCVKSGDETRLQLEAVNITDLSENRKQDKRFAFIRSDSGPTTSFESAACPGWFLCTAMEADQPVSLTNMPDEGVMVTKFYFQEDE
Excerpt: (§2) After spinning, about half of the solution passed through the filter as filtrate, while the remaining solution remained above the filter as retentate.
(§3) K^dL is the Kd for ligand binding to protein and is equal to the concentration of P (free protein) times the concentration of L (free ligand), divided by the concentration of PL (protein bound to ligand). K^dX is the Kd for competitive anion binding to protein and is equal to the concentration of P (free protein) times the concentration of X (free competing anion), divided by concentration of PX (protein bound to competing anion).
(§4) By replacing the (PX) term with (Xfree)(Pfree)/K^dX, which is derived from the equilibrium equation shown above, the expression for K^dLapp can be reduced to: K^dLapp=K^dL[1+(Xfree/K^dX)] Thus, if K^dLapp is plotted versus Xfree, the y-intercept will be equal to K^dL and the slope will be equal to K^dL/K^dX. Rearranging, K^dX will be equal to the y-intercept divided by the slope.
(§5) The concentration of free protein is calculated to be the total concentration of protein in the sample minus the concentration of bound protein (which is equal to the concentration of bound ligand). […] In other words, Xfree=Xtotal−ΔXbound as Xtotal is increased.

IL-1ra [4] = target: T1, IL-1ra; assay: Derivatization of IL-1ra with methyl acetyl phosphate (MAP) in various buffers, reverse-phase HPLC; design: additional N-terminal methionine (not a tag proper); host or cells: E. coli (stated for anakinra in the background); conditions: for rate of derivatization of IL-1ra with MAP compared with phosphate buffer: pH 6.3, 6.5, 6.7; for rate of derivatization of IL-1ra with MAP in 20 mM compared with 10 mM buffer: pH 6.5
Method: IL-1ra was derivatized with MAP in the presence of citrate or phosphate as follows. […] The reaction was incubated at 37° C. and 25 μl aliquots were taken using an HPLC autosampler at 0, 45, 90, 135, 180, 225, and 270 minutes. Each aliquot was analyzed by reverse-phase HPLC using an Agilent 110 HPLC equipped with a Jupiter 5u C4 300A reverse-phase HPLC column (4.6×250 mm, Phenomenex, Torrance, Calif.), an on-line UV detector and a temperature-controlled 100-well sample tray set at 37° C. The flow rate was set at 1 ml/min and the column was maintained at a temperature of 50° C. The column was pre-equilibrated for 15 min (flow rate 1 ml/min) with 65% buffer A (0.1% trifluoroacetic acid (TFA) in water) and 35% buffer B (90% acetonitrile, 0.1% TFA in water). After loading, the analytes were eluted using a gradient ramping from 35% to 50% buffer B (90% acetonitrile, 0.1% TFA in water) over 25 minutes.
(§1) The reaction was incubated at 37° C. and 25 μl aliquots were taken using an HPLC autosampler at 0, 45, 90, 135, 180, 225, and 270 minutes. Each aliquot was analyzed by reverse-phase HPLC as described above for derivatization in the presence of citrate.
as §1, with “citrate. […] Four weakly resolved peaks were identified in this experiment and are indicated on FIG. 15.” for “citrate.”
In particular, each chromatogram from FIG. 16A was deconvoluted using PeakFit™ (Systat Software Inc.). The area under the each of the deconvoluted peaks (peaks 1-4) at each time point (0, 45, 90, 135, 180, 225, and 270 minutes) was then integrated. Deconvoluted peaks 1-4 are labeled on FIG. 16B and the integrated area under each one is shown below. […] The integrated area of deconvoluted peak 4 at time points 0, 45, 90, 135, 180 minutes was then plotted against the incubation time of the reaction that produced that peak. The resulting line has a slope of 68.931 hour^−1.
The rate of derivatization of IL-1ra with MAP was then calculated for various experiments in the presence of various buffers and at various pHs, according to the methods discussed above.

[5] = pH 6.5 and 39° C., estimated from literature-reported pKas
[6] = pH 6.5 and 39° C.; cited from earlier work
[7] = target: T2, anion binding site on IL-1ra; conditions: for Kd: read-out: K^dX, Kd for competing anion binding to the anion binding site of IL-1ra, competition with 10 mM citrate, 1 mM IL-1ra, pH 6.5, 70 mM NaCl
Excerpt: as §2, §3, §4, §5

[8] = pH 6.5, 29° C., IL-1ra 140 mg/ml

T1 sequence (P18510 with tags, fused parts or gaps): as above

reduction in the rate of aggregation of IL-1ra (IL-1ra [1]; [8]): ~90%
Kd (IL-1ra [2]): 3.85 mM
number of binding sites on IL-1ra (x-intercept of Scatchard plot) (IL-1ra [2]; pH 6.5, 70 mM NaCl): 0.94
Kd ([3]; phosphate competition experiment, data not shown): 5 mM
Kd ([3]; pyrophosphate competition experiment): 3.89 mM
rate of derivatization of IL-1ra with MAP compared with phosphate buffer (IL-1ra [4]): slower
rate of derivatization of IL-1ra with MAP in 20 mM compared with 10 mM buffer (IL-1ra [4]): slower
predicted negative charges [5]: three negative charges
Molecule: O=C(O)CC(O)(CC(=O)O)C(=O)O [citrate]

Molecule: O=P(O)(O)OP(=O)(O)O [pyrophosphate]
reduction in the rate of aggregation of IL-1ra (IL-1ra [1]; [8]): ~90%
rate of aggregation of IL-1ra with increasing anion concentration, compared with phosphate buffer (IL-1ra [1]; 1 to 125 mM, 29° C.): decreased more rapidly
concentration at which the reduction in the rate of aggregation leveled off (IL-1ra [1]; [8]): 20 mM
estimated pKa, first ionizable hydrogen [6]: 0.83
estimated pKa, fourth ionizable hydrogen [6]: 9.46
estimated pKa, second ionizable hydrogen [6]: 2.26
estimated pKa, third ionizable hydrogen [6]: 6.72
competing with citrate for the citrate binding site on IL-1ra, compared with phosphate ([7]; 0-20 mM competing anion, 10 mM citrate): more effective
Kd [7]: 2.99 mM
rate of derivatization of IL-1ra with MAP compared with phosphate buffer (IL-1ra [4]): slower
rate of derivatization of IL-1ra with MAP in 20 mM compared with 10 mM buffer (IL-1ra [4]): slower
predicted negative charges [5]: between two and three negative charges

rate of derivatization of IL-1ra with MAP (slope of integrated area of deconvoluted peak 4 versus incubation time) (IL-1ra [4]; 10 mM citrate, pH 6.5, 37° C., time points 0-180 minutes): 68.931 h⁻¹
Molecule: IL-1ra: Purified human recombinant interleukin-1 receptor antagonist having the amino acid sequence of SEQ ID NO: 5 (anakinra)

reduction in the rate of aggregation of IL-1ra (IL-1ra [1]; [8]): ~20%
Kd [7]: 12.6 mM
level of derivatization with MAP at all positions except the N-terminal amine, compared with citrate or pyrophosphate (IL-1ra [4]; 10 mM buffer, 270 minutes, 37° C.): greater
extent of derivatization of IL-1ra with MAP compared with citrate (IL-1ra [4]; 10 mM buffer, pH 6.3, 6.5 or 6.7, 5.5 hours): greater extent
predicted negative charges [5]: predominantly one negative charge
Molecule: phosphate
